Where “and” joins values, the source holds several entries; their conditions need not be identical. Equal values may be shown once. Read-outs that look alike come from different tables or passages of the source.
Experiments:
[1] = system: Influenza A/WSN/33 virus; test: microbe, parasite or virus in culture; format: cell-based, Influenza A/WSN/33 (H1N1); details: for IC50: Influenza A virus, WSN, MDCK, read-out: IC50 decrease × 10 viral titer/control (n = 2)
[2] = system: Influenza A/PR8/34 virus; parameters: species or system Balb/C mice; details: mouse, in vivo
[3] = system: H1N1 WSN strain
[4] = system: H3N2 virus A/Udorn; details: MTT 24 h; A/Udorn MOI 10^−1; 100 μM

Row | Compound | IC10 decrease × 10 viral titer/control (n = 2) [1] | viral titer decrease, Naproxen vs Tamiflu [1] | Viral titer Pfu/ml MDCK cells ([1]; 50 μM) | IC50 ([1]; 24 h) | further results
1 | COc1ccc2cc(C(C)C(=O)O)ccc2c1 (stereo not shown) [Naproxen] | ~50 μM | viral titer decreases similarly | – | – | decrease of viral titers with concentration [1]: the greater the concentration in Naproxen, the quicker the decrease of the viral titers; IC50 ([1]; 48 h): ~10 µM; weight loss [2]: 19%; decrease factor of viral titer in lungs vs untreated infected controls ([2]; ip): ~42 factor; infectious outbreaks in the cell layer and dead cells [3]: reduced the number and the size of the infectious outbreaks; localisation of nucleoprotein [3]: has not modified the localisation of nucleoprotein; Protection % [4]: 85 ± 2%
2 | CCOC(=O)C1=C[C@@H](OC(CC)CC)[C@H](NC(C)=O)[C@@H](N)C1 [Tamiflu, oseltamivir] | – | viral titer decreases similarly | – | – | decrease factor of viral titer in lungs vs untreated infected controls [2]: ~100 factor
3 | O=C(O)c1ccc(C=Nn2c(S)nnc2-c2ccc(Cl)cc2Cl)cc1 [compound 59] | ~30 μM | – | 5.5 ± 2.5 × 10^5 Pfu/ml | ~5 µM | –
4 | Cc1ccc(-c2nnc(S)n2/N=C/c2ccc(C(=O)O)cc2)cc1 [compound 72] | ~20 μM and ~35 μM | – | 7.6 ± 4.0 × 10^5 Pfu/ml and 3.9 ± 1.6 × 10^6 Pfu/ml | ~5 µM | –
5 | COc1ccc(-c2nnc(S)n2N=Cc2ccc(C(=O)O)cc2)cc1 [compound 88] | No effect | – | – | – | Viral titer Pfu/ml MDCK cells ([1]; 5 μM): 1-4 × 10^7 Pfu/ml
